Results: patent publication US20240059682A1, “THYROID HORMONE RECEPTOR BETA AGONIST COMPOUNDS” (Terns Pharmaceuticals, Inc., priority 2021, published 2024)
Like-named read-outs stand apart in the source and are kept apart here.

What was measured:
THR-β/RXR-α = THR-β/RXR-α (Homo sapiens (Human), UniProt P10828); experiment: THR/RXR heterodimer assay (THR-β/RXR-α); format: biochemical; conditions: RXR heterodimer assay; for THRß-Selectivity: normalized to T3 activity
[1] = Tissue distribution in rats; format: in vivo, male Sprague-Dawley (SD) rats; conditions: 2 hours post-dose, male SD rats; for Kp at 2 h / concentration at 2 h: Sprague-Dawley, rat
Protocol: Examples 12 and 14 were administered via a 30-minute intravenous (IV) infusion at approximately 2 mg/kg to jugular vein cannulated male Sprague-Dawley (SD) rats. All animals were euthanized by CO2 inhalation at 2 hours post-dose. The concentrations of Examples 12 and 14 in rat plasma and liver, heart and kidney tissues were determined with an LC-MS/MS method.

[2] = Pharmacokinetics study in rats; format: in vivo, male Sprague-Dawley (SD) rats; conditions: male SD rats; for AUC(0-inf) / half-life / clearance / Vd / bioavailability / AUC(0-t) / Cmax: Sprague-Dawley, rat, plasma; for clearance: mean±SD, read-out: plasma clearance (CL); for Vd: read-out: volume of distribution (Vdss)
Protocol: Examples 12 and 14 were administered via a 30-minute intravenous (IV) infusion at approximately 1 mg/kg and orally at approximately 3 mg/kg to male Sprague-Dawley (SD) rats. The concentrations of Examples 12 and 14 in rat plasma was determined with an LC-MS/MS method.

TR beta-LBD = TR beta-LBD (Homo sapiens (Human), UniProt P10828); conditions: TR-FRET; derived from T3-selectivity normalized data
Sequence of TR beta-LBD (P10828 whole entry, looked up, the tested form may be a part): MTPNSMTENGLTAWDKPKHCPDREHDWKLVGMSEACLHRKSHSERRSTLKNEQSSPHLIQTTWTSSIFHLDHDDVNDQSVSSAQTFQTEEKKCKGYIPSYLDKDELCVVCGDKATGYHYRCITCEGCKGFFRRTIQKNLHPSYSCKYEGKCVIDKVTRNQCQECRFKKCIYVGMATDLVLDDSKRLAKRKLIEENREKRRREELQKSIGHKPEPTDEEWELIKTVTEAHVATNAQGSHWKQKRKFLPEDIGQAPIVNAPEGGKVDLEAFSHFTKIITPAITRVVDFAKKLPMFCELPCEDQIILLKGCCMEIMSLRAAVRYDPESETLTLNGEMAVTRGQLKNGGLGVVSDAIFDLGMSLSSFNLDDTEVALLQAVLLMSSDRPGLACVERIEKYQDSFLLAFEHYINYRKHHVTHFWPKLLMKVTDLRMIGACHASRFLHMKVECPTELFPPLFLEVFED

THR-α/RXR-α = THR-α/RXR-α (Homo sapiens (Human), UniProt P10827); experiment: THR/RXR heterodimer assay (THR-α/RXR-α); format: biochemical; conditions: RXR heterodimer assay; read-out: EC50 THRα-het
Sequence of THR-α/RXR-α (P10827 other isoform, or with tags, fused parts or gaps): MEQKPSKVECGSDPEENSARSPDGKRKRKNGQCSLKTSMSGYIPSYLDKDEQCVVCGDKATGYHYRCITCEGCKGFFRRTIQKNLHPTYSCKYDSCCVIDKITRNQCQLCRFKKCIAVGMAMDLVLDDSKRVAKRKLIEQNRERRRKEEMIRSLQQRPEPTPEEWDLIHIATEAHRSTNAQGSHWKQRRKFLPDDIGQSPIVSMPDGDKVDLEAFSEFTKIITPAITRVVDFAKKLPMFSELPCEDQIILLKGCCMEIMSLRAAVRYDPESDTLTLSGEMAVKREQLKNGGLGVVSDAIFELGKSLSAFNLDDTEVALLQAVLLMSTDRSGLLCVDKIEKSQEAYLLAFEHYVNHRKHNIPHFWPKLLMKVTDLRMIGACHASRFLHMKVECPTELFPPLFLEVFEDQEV
Sequence of THR-α/RXR-α (P19793 225-462 partner): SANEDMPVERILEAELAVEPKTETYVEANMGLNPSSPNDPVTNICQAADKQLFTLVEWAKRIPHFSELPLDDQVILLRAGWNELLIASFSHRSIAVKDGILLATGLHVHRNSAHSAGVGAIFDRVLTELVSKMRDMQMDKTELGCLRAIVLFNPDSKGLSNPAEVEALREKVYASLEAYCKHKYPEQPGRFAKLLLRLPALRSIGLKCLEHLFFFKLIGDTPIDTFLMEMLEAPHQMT
Sequence of THR-α/RXR-α (Q15596 679-703 partner): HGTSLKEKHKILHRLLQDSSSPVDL

Sequence of THR-β/RXR-α (P10828 202-461): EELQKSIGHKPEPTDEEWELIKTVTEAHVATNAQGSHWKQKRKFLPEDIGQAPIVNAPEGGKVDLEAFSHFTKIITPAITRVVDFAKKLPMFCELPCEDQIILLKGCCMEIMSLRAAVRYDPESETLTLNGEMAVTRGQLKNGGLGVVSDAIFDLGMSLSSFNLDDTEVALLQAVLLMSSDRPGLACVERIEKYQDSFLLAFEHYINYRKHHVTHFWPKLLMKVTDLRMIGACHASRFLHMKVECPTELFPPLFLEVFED
Sequence of THR-β/RXR-α (P19793 225-462 partner): as the sequence (P19793 225-462 partner) above

Q: For `O=C(Nc1cc(Cl)c(Oc2ccc3[nH]c(=O)n(C4CC4)c3c2)c(Cl)c1)c1noc(=O)[nH]1` [Example 1, N-(3,5-dichloro-4-((3-cyclopropyl-2-oxo-2,3-dihydro-1H-benzo[d]imidazol-5-yl)oxy)phenyl)-5-oxo-4,5-dihydro-1,2,4-oxadiazole-3-carboxamide], which THRß-Selectivity (THR-β/RXR-α) is on record?
A: 5.1

Q: Which THRß-Selectivity (THR-β/RXR-α) does the source give for `COc1nc2ccc(Oc3c(Cl)cc(-n4nc(C#N)c(=O)[nH]c4=O)cc3Cl)cc2n1C1CC1` [Example 2, 2-(3,5-dichloro-4-((1-cyclopropyl-2-methoxy-1H-benzo[d]imidazol-6-yl)oxy)phenyl)-3,5-dioxo-2,3,4,5-tetrahydro-1,2,4-triazine-6-carbonitrile] here?
A: 16.9

Q: For `COc1nc2ccc(Oc3c(Cl)cc(NC(=O)c4noc(=O)[nH]4)cc3Cl)cc2n1C` [Example 3, N-(3,5-dichloro-4-((2-methoxy-1-methyl-1H-benzo[d]imidazol-6-yl)oxy)phenyl)-5-oxo-4,5-dihydro-1,2,4-oxadiazole-3-carboxamide], which THRß-Selectivity (THR-β/RXR-α) is on record?
A: 9.7

Q: For `CC(C)n1c(=O)[nH]c2ccc(Oc3c(Cl)cc(-n4nc(C#N)c(=O)[nH]c4=O)cc3Cl)cc21` [Example 5, 2-(3,5-dichloro-4-((3-isopropyl-2-oxo-2,3-dihydro-1H-benzo[d]imidazol-5-yl)oxy)phenyl)-3,5-dioxo-2,3,4,5-tetrahydro-1,2,4-triazine-6-carbonitrile], which THRß-Selectivity (THR-β/RXR-α) is on record?
A: 5.8

Q: With `COc1nc2ccc(Oc3c(Cl)cc(NC(=O)c4noc(=O)[nH]4)cc3Cl)cc2n1C(C)C` [Example 6, N-(3,5-dichloro-4-((1-isopropyl-2-methoxy-1H-benzo[d]imidazol-6-yl)oxy)phenyl)-5-oxo-4,5-dihydro-1,2,4-oxadiazole-3-carboxamide] as the compound, how does the THRß-Selectivity (THR-β/RXR-α) read?
A: 16.9

Q: For `COc1nc2ccc(Oc3c(Cl)cc(NC(=O)c4noc(=O)[nH]4)cc3Cl)cc2n1C1CC1` [Example 7, N-(3,5-dichloro-4-((1-cyclopropyl-2-methoxy-1H-benzo[d]imidazol-6-yl)oxy)phenyl)-5-oxo-4,5-dihydro-1,2,4-oxadiazole-3-carboxamide], which THRß-Selectivity (THR-β/RXR-α) is on record?
A: 21.2

Q: Which THRß-Selectivity (THR-β/RXR-α) does the source give for `N#Cc1nn(-c2cc(Cl)c(Oc3ccc4[nH]c(=O)n(C5CC5)c4c3)c(Cl)c2)c(=O)[nH]c1=O` [Example 8, 2-(3,5-dichloro-4-((3-cyclopropyl-2-oxo-2,3-dihydro-1H-benzo[d]imidazol-5-yl)oxy)phenyl)-3,5-dioxo-2,3,4,5-tetrahydro-1,2,4-triazine-6-carbonitrile] here?
A: 7.2

Q: For `CC(C)(C)n1c(=O)[nH]c2ccc(Oc3c(Cl)cc(NC(=O)c4noc(=O)[nH]4)cc3Cl)cc21` [Example 10, N-(4-((3-(tert-butyl)-2-oxo-2,3-dihydro-1H-benzo[d]imidazol-5-yl)oxy)-3,5-dichlorophenyl)-5-oxo-4,5-dihydro-1,2,4-oxadiazole-3-carboxamide], which THRß-Selectivity (THR-β/RXR-α) is on record?
A: 7.7

Q: Which THRß-Selectivity (THR-β/RXR-α) does the source give for `COc1nc2ccc(Oc3c(Cl)cc(NC(=O)c4noc(=O)[nH]4)cc3Cl)cc2n1C1(C)CC1` [Example 11, N-(3,5-dichloro-4-((2-methoxy-1-(1-methylcyclopropyl)-1H-benzo[d]imidazol-6-yl)oxy)phenyl)-5-oxo-4,5-dihydro-1,2,4-oxadiazole-3-carboxamide] here?
A: 17.7

Q: What does the source list for `COc1nc2ccc(Oc3c(Cl)cc(-n4nc(C#N)c(=O)[nH]c4=O)cc3Cl)cc2n1C1(C)CC1` [Example 12, 2-(3,5-dichloro-4-((2-methoxy-1-(1-methylcyclopropyl)-1H-benzo[d]imidazol-6-yl)oxy)phenyl)-3,5-dioxo-2,3,4,5-tetrahydro-1,2,4-triazine-6-carbonitrile]?
A: Kp at 2 h ([1]; heart/plasma, IV infusion 2.0 mg/kg, read-out: tissue/plasma ratio heart/plasma): 1.65 ± 2.33; concentration at 2 h ([1]; heart, IV infusion 2.0 mg/kg, read-out: tissue concentration in heart): 995 ± 1430 ng/g; Kp at 2 h ([1]; kidney/plasma, IV infusion 2.0 mg/kg, read-out: tissue/plasma ratio kidney/plasma): 1.01 ± 0.212; concentration at 2 h ([1]; kidney, IV infusion 2.0 mg/kg, read-out: tissue concentration in kidney): 558 ± 103 ng/g; Kp at 2 h ([1]; liver/plasma, IV infusion 2.0 mg/kg, read-out: tissue/plasma ratio liver/plasma): 5.62 ± 1.09; concentration at 2 h ([1]; liver, IV infusion 2.0 mg/kg, mean±SD, read-out: tissue concentration in liver): 3040 ± 350 ng/g; concentration at 2 h ([1]; plasma, IV infusion 2.0 mg/kg, read-out: plasma concentration): 569 ± 145 ng/mL; AUC(0-inf) ([2]; IV infusion 1.09 mg/kg): 3780 ± 704 ng·h/mL; half-life ([2]; IV infusion 1.09 mg/kg): 2.67 ± 0.53 h; clearance ([2]; IV infusion 1.09 mg/kg): 4.51 ± 0.883 mL/min/kg; Vd ([2]; IV infusion 1.09 mg/kg): 0.638 ± 0.218 L/kg; bioavailability ([2]; oral 3.0 mg/kg vs IV 1.09 mg/kg): 95.2%; AUC(0-inf) ([2]; oral 3.0 mg/kg): 10800 ± 5630 ng·h/mL; AUC(0-t) ([2]; oral 3.0 mg/kg): 10800 ± 5630 ng·h/mL; Cmax ([2]; oral 3.0 mg/kg): 2020 ± 793 ng/mL; time post-dose at which Cmax was reached ([2]; oral 3.0 mg/kg): 3.33 ± 1.15 h; THRß-Selectivity (THR-β/RXR-α): 18.7

Q: Which THRß-Selectivity (THR-β/RXR-α) does the source give for `CC1(n2c(=O)[nH]c3ccc(Oc4c(Cl)cc(NC(=O)c5noc(=O)[nH]5)cc4Cl)cc32)CC1` [Example 13, N-(3,5-dichloro-4-((3-(1-methylcyclopropyl)-2-oxo-2,3-dihydro-1H-benzo[d]imidazol-5-yl)oxy)phenyl)-5-oxo-4,5-dihydro-1,2,4-oxadiazole-3-carboxamide] here?
A: 11.0

Q: For `CC1(n2c(=O)[nH]c3ccc(Oc4c(Cl)cc(-n5nc(C#N)c(=O)[nH]c5=O)cc4Cl)cc32)CC1` [Example 14, 2-(3,5-dichloro-4-((3-(1-methylcyclopropyl)-2-oxo-2,3-dihydro-1H-benzo[d]imidazol-5-yl)oxy)phenyl)-3,5-dioxo-2,3,4,5-tetrahydro-1,2,4-triazine-6-carbonitrile], which “tissue concentration in heart” value ([1]; IV infusion 2.16 mg/kg) is on record?
A: below the limit of detection

Q: And the Kp at 2 h ([1]; kidney/plasma, IV infusion 2.16 mg/kg, read-out: tissue/plasma ratio kidney/plasma)?
A: 6.25 ± 2.13

Q: And the concentration at 2 h ([1]; kidney, IV infusion 2.16 mg/kg, read-out: tissue concentration in kidney)?
A: 94 ± 23.5 ng/g

Q: What about the Kp at 2 h ([1]; liver/plasma, IV infusion 2.16 mg/kg, read-out: tissue/plasma ratio liver/plasma) of the same compound?
A: 29 ± 24.9

Q: And the concentration at 2 h ([1]; liver, IV infusion 2.16 mg/kg, read-out: tissue concentration in liver)?
A: 413 ± 303 ng/g

Q: And the concentration at 2 h ([1]; plasma, IV infusion 2.16 mg/kg, read-out: plasma concentration)?
A: 15.5 ± 3.7 ng/mL

Q: What about the AUC(0-inf) ([2]; IV infusion 1.09 mg/kg) of the same compound?
A: 550 ± 19.6 ng·h/mL

Q: And the half-life ([2]; IV infusion 1.09 mg/kg)?
A: 1.51 ± 0.54 h

Q: And the clearance ([2]; IV infusion 1.09 mg/kg)?
A: 30.3 ± 1.07 mL/min/kg

Q: And the Vd ([2]; IV infusion 1.09 mg/kg)?
A: 1.28 ± 0.387 L/kg

Q: What about the bioavailability ([2]; oral 3.18 mg/kg vs IV 1.09 mg/kg) of the same compound?
A: 11.5%

Q: And the AUC(0-inf) ([2]; oral 3.18 mg/kg)?
A: 190 ± 28.7 ng·h/mL

Q: And the AUC(0-t) ([2]; oral 3.18 mg/kg)?
A: 178 ± 25.5 ng·h/mL

Q: And the Cmax ([2]; oral 3.18 mg/kg)?
A: 31 ± 5.92 ng/mL

Q: What about the “time post-dose at which Cmax was reached” value ([2]; oral 3.18 mg/kg) of the same compound?
A: 4.0 ± 2.0 h

Q: And the THRß-Selectivity (THR-β/RXR-α)?
A: 12.0

Q: For `COc1nc2ccc(Oc3c(Cl)cc(-n4nc(C#N)c(=O)[nH]c4=O)cc3Cl)cc2n1C(C)(C)C` [Example 15, 2-(4-((1-(tert-butyl)-2-methoxy-1H-benzo[d]imidazol-6-yl)oxy)-3,5-dichlorophenyl)-3,5-dioxo-2,3,4,5-tetrahydro-1,2,4-triazine-6-carbonitrile], which THRß-Selectivity (THR-β/RXR-α) is on record?
A: 10.3

Q: For `CC(C)(C)n1c(=O)[nH]c2ccc(Oc3c(Cl)cc(-n4nc(C#N)c(=O)[nH]c4=O)cc3Cl)cc21` [Example 16, 2-(4-((3-(tert-butyl)-2-oxo-2,3-dihydro-1H-benzo[d]imidazol-5-yl)oxy)-3,5-dichlorophenyl)-3,5-dioxo-2,3,4,5-tetrahydro-1,2,4-triazine-6-carbonitrile], which THRß-Selectivity (THR-β/RXR-α) is on record?
A: 9.8

Q: For `O=C(Nc1cc(Cl)c(Oc2ccc3[nH]c(=O)n(C4(C(F)F)CC4)c3c2)c(Cl)c1)c1noc(=O)[nH]1` [Example 17, N-(3,5-dichloro-4-((3-(1-(difluoromethyl)cyclopropyl)-2-oxo-2,3-dihydro-1H-benzo[d]imidazol-5-yl)oxy)phenyl)-5-oxo-4,5-dihydro-1,2,4-oxadiazole-3-carboxamide], which THRß-Selectivity (THR-β/RXR-α) is on record?
A: 10.1

Q: For `N#Cc1nn(-c2cc(Cl)c(Oc3ccc4[nH]c(=O)n(C5(C(F)F)CC5)c4c3)c(Cl)c2)c(=O)[nH]c1=O` [Example 18, 2-(3,5-dichloro-4-((3-(1-(difluoromethyl)cyclopropyl)-2-oxo-2,3-dihydro-1H-benzo[d]imidazol-5-yl)oxy)phenyl)-3,5-dioxo-2,3,4,5-tetrahydro-1,2,4-triazine-6-carbonitrile], which THRß-Selectivity (THR-β/RXR-α) is on record?
A: 8.2

Q: For `Cn1c(=O)[nH]c2ccc(Oc3c(Cl)cc(NC(=O)c4noc(=O)[nH]4)cc3Cl)cc21` [Example 19, N-(3,5-dichloro-4-((3-methyl-2-oxo-2,3-dihydro-1H-benzo[d]imidazol-5-yl)oxy)phenyl)-5-oxo-4,5-dihydro-1,2,4-oxadiazole-3-carboxamide], which THRß-Selectivity (TR beta-LBD) is on record?
A: 14.1

Q: What about the THRß-Selectivity (THR-β/RXR-α) of the same compound?
A: 5.3

Q: For `COc1nc2ccc(Oc3c(Cl)cc(NC(=O)c4noc(=O)[nH]4)cc3Cl)cc2n1C1(C(F)(F)F)CC1` [Example 24], which EC50 (THR-α/RXR-α) is on record?
A: 3230 nM

Q: And the THRß-Selectivity (THR-β/RXR-α)?
A: 6.7

Q: And the EC50 (THR-β/RXR-α; read-out: EC50 THRß-het)?
A: 480 nM
